Test results taken from patent US11840525B2, “Use of AURKB small-molecule inhibitors for treatment of non-small cell lung cancer” (Nanjing China-Australia Institute of Translational Medicine …, priority 2016, dated 2023).

Tests used:
SW480 = assay: Growth inhibition of tumor cells, SW480; format: cell-based; details: Homo sapiens, read-out: IC50 against tumor cells, SW480
Description: (§1) Lung cancer cells A549 were separated into a 96-well plate and respectively added with 10 mM TZ47 stock solution to final concentrations of 0 μM, 0.1 μM, 0.5 μM, 1 μM, 2 μM, 4 μM and 8 μM in respective wells. Then the 96-well plate was incubated at 37° C. for 48 h and the growth of the cells was analyzed by a CCK-8 method. […] It can be seen from Table 1 that TZ47 also plays a desirable role in inhibiting the growth of other cancer cells including colorectal cancer, leukemia, liver cancer, melanoma, breast cancer and ovarian cancer.

A549 cells = assay: Apoptosis of A549 cells by flow cytometry; format: cell-based; details: flow cytometer
Description: To elucidate how TZ47 induced the cell death, a flow cytometer was applied to measure and analyze the apoptosis of cells in solvent (DMSO) control group and the treatment groups with different gradients of TZ47 in the use of a cell apoptosis detection kit.

MCF-7 = assay: Growth inhibition of tumor cells, MCF-7; format: cell-based; details: Homo sapiens, MCF7; read-out: IC50 against tumor cells, MCF-7
Description: as §1

A549 xenograft = assay: A549 heterotopic xenograft in nude mice; format: in vivo; details: 150 mg/kg
Description: The lung-cancer mouse model was constructed to test the effect of TZ47 on tumor proliferation in vivo. First, A549 cells were inoculated into the mice at the left axilla. When the tumor was proliferated to 100 mm^3, the mice were treated with TZ47 (150 mg/kg), and the weight, tumor volume and diet were observed and recorded. In the sixth week, the mice were anesthetized, and the tumors were photographed and recorded. […] The mice were quickly sacrificed through the dislocation of cervical vertebra, and the solid tumor was collected and weighed.
Next, part of the solid tumor was extracted for the immunohistochemistry assay. […] The solid tumor protein was lysed and analyzed by western blot assay.

[1] = system: H3S10 phosphorylation in A549 cells; assay: Western blot of histone modifications in A549 cells; format: cell-based
[2] = system: H3S10 ph near the E2F2 promoter in A549 cells; assay: ChIP assay of H3S10 ph near the E2F2 promoter; format: cell-based; details: TZ47-treated A549 cells
Description: A549 cells were treated by different concentrations of TZ47, and then total RNAs and total proteins of cells were extracted to detect the expression of gene E2F2. […] To further verify the above results, A549 cells were treated with TZ47 and extracted for chromatin, and the chromatin and an H3S10 ph-specific antibody were then used in the ChIP assay. […] It can be seen from the above tests that TZ47 can inhibit the AURKB activity and further inhibit the level of AURKB histone substrate H3S10 ph on the promoter of gene E2F2, affecting the expression of gene E2F2.
The specific steps were described as follows. • a. Detailed steps and conditions for Western blot assay and real-time quantitative PCR test have been described in the above Examples. • b. Chromatin co-immunoprecipitation (ChIP) • 1) In vivo cross-linking of DNA-protein complex
2×10^6-7 cells were collected by low-speed centrifugation, resuspended in 20 mL of RPMI 1640 medium, added with 550 μL of a 37% formalin solution in a fuming cupboard to a final concentration of 1% and incubated for 10 min. The system was mixed 2-3 times during the incubation. • 2) Termination of cross-linking
The cross-linking system was added with 1.35 mL of 2 M glycine (final concentration: 0.1 M), mixed uniformly and incubated for 10 min. […]
The OD260 value of the supernatant was determined and used to calculate the DNA concentration. […]

gene E2F2 in A549 cells = assay: E2F2 expression in A549 cells (real-time quantitative PCR, Western blot); format: cell-based

Compound: c1ccc2c(Cc3[nH]c4ccccc4c3Cc3c[nH]c4ccccc34)c[nH]c2c1 [TZ47]
- IC50 (SW480): 9.43 ± 0.34 µM
- apoptosis, 1 μM and 2 μM treatment groups (A549 cells; 1 μM and 2 μM): no significant difference
- proportion of early apoptotic cells (A549 cells; 4 μM): significantly increased
- IC50 (MCF-7): 1870 ± 150 nM
- behavior, diet and weight of the mice versus control group (A549 xenograft): no significant difference
- HE staining of solid tumor (A549 xenograft; also verified with Ki-67): large quantity of necrotic tissues
- tumor volume versus solvent control group (A549 xenograft; sixth week): significantly smaller
- solid tumor weight (tumor growth in vivo) (A549 xenograft; tumor collected and weighed): significant activity in inhibiting the tumor growth
- expression level of AURKB protein in solid tumor (A549 xenograft; western blot of tumor): did not affect
- H3S10 ph modification level in solid tumor (A549 xenograft; western blot of tumor, P<0.05): significantly reduced
- degradation of AURKB protein in A549 cells ([1]; 48 h): did not mediate the degradation
- labeling of other histone residues close to H3S10 ([1]; A549 cells): failed to affect
- phosphorylation level of H3S10 in A549 cells ([1]; different concentrations, 48 h): significantly reduced
- enrichment of histone H3S10 ph near the E2F2 promoter [2]: significantly reduced
- E2F2 protein level (gene E2F2 in A549 cells; Western blot): reduced
- expression level of gene E2F2 (mRNA) (gene E2F2 in A549 cells; real-time quantitative PCR): significantly reduced
